In the supplement of paper PMC10307832:

How the values were obtained:
Experiment in all cases: relative viability (nuclei count vs DMSO), 5 days (fraction); higher = more cells survive
ABC-1 = tested on: ABC-1
How it was run: (§1)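 After 5 days of treatment, lung cancer cells in 1536-well plates were fixed and stained in a single step (final 0.05% Triton X-100, 1% formaldehyde, 1 ug/ml Hoechst) and their nuclei counted on 4× images. Treatment had been applied by pin tool the day after seeding as one drug alone or as a fixed anchor-drug dose with five library-drug doses (not always all listed) in √10 steps. Relative viability is the nuclei count of treated wells divided by that of vehicle wells, and values are medians of duplicate plates.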

CAL-12T = tested on: CAL-12T
How it was run: as §1

COR-L 105 = tested on: COR-L 105
How it was run: as §1

ChaGo-K-1 = tested on: ChaGo-K-1
How it was run: as §1

EKVX = tested on: EKVX
How it was run: as §1

EPLC-272H = tested on: EPLC-272H
How it was run: as §1

H3255 = tested on: H3255
How it was run: as §1

HCC-366 = tested on: HCC-366
How it was run: as §1

HCC-827 = tested on: HCC-827
How it was run: as §1

NCI-H1355 = tested on: NCI-H1355
How it was run: as §1

NCI-H1975 = tested on: NCI-H1975
How it was run: as §1

NCI-H1993 = tested on: NCI-H1993
How it was run: as §1

NCI-H2009 = tested on: NCI-H2009
How it was run: as §1

NCI-H2085 = tested on: NCI-H2085
How it was run: as §1

NCI-H2087 = tested on: NCI-H2087
How it was run: as §1

NCI-H2228 = tested on: NCI-H2228
How it was run: as §1

NCI-H2342 = tested on: NCI-H2342
How it was run: as §1

NCI-H322M = tested on: NCI-H322M
How it was run: as §1

NCI-H441 = tested on: NCI-H441
How it was run: as §1

NCI-H460 = tested on: NCI-H460
How it was run: as §1

SK-MES-1 = tested on: SK-MES-1
How it was run: as §1

Compound: CN1CCN(CCOc2cc(OC3CCOCC3)c3c(Nc4c(Cl)ccc5c4OCO5)ncnc3c2)CC1 [Saracatinib] + Cc1cc(Nc2cc(N3CCN(C)CC3)nc(Sc3ccc(NC(=O)C4CC4)cc3)n2)n[nH]1 [Tozasertib] (partner 0.1 µM)
- relative viability (ABC-1; first compound 0.02 µM): 0.157
- relative viability (ABC-1; first compound 0.2 µM): 0.164
- relative viability (ABC-1; first compound 0.6325 µM): 0.169
- relative viability (ABC-1; first compound 2 µM): 0.14
- relative viability (CAL-12T; first compound 0.02 µM): 0.361
- relative viability (CAL-12T; first compound 0.2 µM): 0.387
- relative viability (CAL-12T; first compound 0.6325 µM): 0.283
- relative viability (CAL-12T; first compound 2 µM): 0.194
- relative viability (COR-L 105; first compound 0.02 µM): 0.358
- relative viability (COR-L 105; first compound 0.2 µM): 0.323
- relative viability (COR-L 105; first compound 0.6325 µM): 0.309
- relative viability (COR-L 105; first compound 2 µM): 0.282
- relative viability (ChaGo-K-1; first compound 0.02 µM): 0.24
- relative viability (ChaGo-K-1; first compound 0.2 µM): 0.233
- relative viability (ChaGo-K-1; first compound 0.6325 µM): 0.218
- relative viability (ChaGo-K-1; first compound 2 µM): 0.198
- relative viability (EKVX; first compound 0.02 µM): 0.357
- relative viability (EKVX; first compound 0.6325 µM): 0.366
- relative viability (EKVX; first compound 2 µM): 0.254
- relative viability (EPLC-272H; first compound 0.02 µM): 0.278
- relative viability (EPLC-272H; first compound 0.2 µM): 0.34
- relative viability (EPLC-272H; first compound 0.6325 µM): 0.179
- relative viability (EPLC-272H; first compound 2 µM): 0.157
- relative viability (H3255; first compound 0.02 µM): 0.621
- relative viability (H3255; first compound 0.2 µM): 0.585
- relative viability (H3255; first compound 0.6325 µM): 0.444
- relative viability (H3255; first compound 2 µM): 0.291
- relative viability (HCC-366; first compound 0.02 µM): 0.117
- relative viability (HCC-366; first compound 0.6325 µM): 0.074
- relative viability (HCC-366; first compound 2 µM): 0.0412
- relative viability (HCC-827; first compound 0.02 µM): 0.404
- relative viability (HCC-827; first compound 0.2 µM): 0.311
- relative viability (HCC-827; first compound 0.6325 µM): 0.171
- relative viability (HCC-827; first compound 2 µM): 0.11
- relative viability (NCI-H1355; first compound 0.02 µM): 0.532
- relative viability (NCI-H1355; first compound 0.2 µM): 0.317
- relative viability (NCI-H1355; first compound 0.6325 µM): 0.454
- relative viability (NCI-H1355; first compound 2 µM): 0.36
- relative viability (NCI-H1975; first compound 0.02 µM): 0.697
- relative viability (NCI-H1975; first compound 0.2 µM): 0.709
- relative viability (NCI-H1975; first compound 0.6325 µM): 0.675
- relative viability (NCI-H1975; first compound 2 µM): 0.33
- relative viability (NCI-H1993; first compound 0.02 µM): 0.6
- relative viability (NCI-H1993; first compound 0.2 µM): 0.559
- relative viability (NCI-H1993; first compound 0.6325 µM): 0.569
- relative viability (NCI-H1993; first compound 2 µM): 0.576
- relative viability (NCI-H2009; first compound 0.02 µM): 0.655
- relative viability (NCI-H2009; first compound 0.2 µM): 0.715
- relative viability (NCI-H2009; first compound 0.6325 µM): 0.5
- relative viability (NCI-H2009; first compound 2 µM): 0.609
- relative viability (NCI-H2085; first compound 0.02 µM): 0.816
- relative viability (NCI-H2085; first compound 0.2 µM): 0.676
- relative viability (NCI-H2085; first compound 0.6325 µM): 0.722
- relative viability (NCI-H2085; first compound 2 µM): 0.707
- relative viability (NCI-H2087; first compound 0.02 µM): 0.224
- relative viability (NCI-H2087; first compound 0.2 µM): 0.206
- relative viability (NCI-H2087; first compound 0.6325 µM): 0.258
- relative viability (NCI-H2087; first compound 2 µM): 0.231
- relative viability (NCI-H2228; first compound 0.02 µM): 0.222
- relative viability (NCI-H2228; first compound 0.2 µM): 0.148
- relative viability (NCI-H2228; first compound 0.6325 µM): 0.213
- relative viability (NCI-H2228; first compound 2 µM): 0.154
- relative viability (NCI-H2342; first compound 0.02 µM): 0.499
- relative viability (NCI-H2342; first compound 0.2 µM): 0.608
- relative viability (NCI-H2342; first compound 0.6325 µM): 0.473
- relative viability (NCI-H2342; first compound 2 µM): 0.496
- relative viability (NCI-H322M; first compound 0.02 µM): 0.501
- relative viability (NCI-H322M; first compound 0.2 µM): 0.313
- relative viability (NCI-H322M; first compound 0.6325 µM): 0.439
- relative viability (NCI-H322M; first compound 2 µM): 0.255
- relative viability (NCI-H441; first compound 0.02 µM): 0.557
- relative viability (NCI-H441; first compound 0.2 µM): 0.601
- relative viability (NCI-H441; first compound 0.6325 µM): 0.728
- relative viability (NCI-H441; first compound 2 µM): 0.641
- relative viability (NCI-H460; first compound 0.02 µM): 0.407
- relative viability (NCI-H460; first compound 0.2 µM): 0.397
- relative viability (NCI-H460; first compound 0.6325 µM): 0.433
- relative viability (NCI-H460; first compound 2 µM): 0.279
- relative viability (SK-MES-1; first compound 0.02 µM): 0.868
- relative viability (SK-MES-1; first compound 0.2 µM): 0.836
- relative viability (SK-MES-1; first compound 0.6325 µM): 0.872
- relative viability (SK-MES-1; first compound 2 µM): 0.666
